In the supplement of paper PMC10307832:

Key:
Experiment in all cases: relative viability (nuclei count vs DMSO), 5 days (fraction); higher = more cells survive
[1] = compound: CC1=CC(=CC=C1)NC2=NC(=CS2)C3=CC=NC=C3 + N=C(N)NC(=N)NCCc1ccccc1 [Phenformin] (partner 250 µM)
Procedure, shortened: (§1)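 Lung cancer cell lines were seeded in 1536-well plates and dosed by pin tool the next day, with either a single drug or a fixed anchor-drug dose combined with five library-drug doses (not always all listed) spaced in √10 steps. Five days later, one step fixed the cells and stained their nuclei (final 0.05% Triton X-100, 1% formaldehyde, 1 ug/ml Hoechst), and nuclei were counted on 4× images. Relative viability is the nuclei count in treated wells divided by the count in vehicle wells, and each value is the median of duplicate plates.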

[2] = compound: Cc1ccc(NC(=O)c2ccc(CN3CCN(C)CC3)cc2)cc1Nc1nc(-c2cccnc2)cs1 [Masitinib] + CC(=O)Nc1cccc(-n2c(=O)n(C3CC3)c(=O)c3c(Nc4ccc(I)cc4F)n(C)c(=O)c(C)c32)c1 [Trametinib] (partner 0.02 µM)
Procedure, shortened: as §1

[3] = compound: Cc1ccc(NC(=O)c2ccc(CN3CCN(C)CC3)cc2)cc1Nc1nc(-c2cccnc2)cs1 [Masitinib] + CS(=O)(=O)N1CCN(Cc2cc3nc(-c4cccc5[nH]ncc45)nc(N4CCOCC4)c3s2)CC1 [Pictilisib] (partner 1 µM)
Procedure, shortened: as §1

[4] = compound: Cc1ccc(NC(=O)c2ccc(CN3CCN(C)CC3)cc2)cc1Nc1nc(-c2cccnc2)cs1 [Masitinib] + O=C(CCCCCCC(=O)Nc1ccccc1)NO [Vorinostat] (partner 1 µM)
Procedure, shortened: as §1

Cell Line	relative viability ([1]; first compound 0.08 µM)	relative viability ([1]; first compound 0.253 µM)	relative viability ([1]; first compound 0.8 µM)	relative viability ([1]; first compound 2.53 µM)	relative viability ([1]; first compound 8 µM)	relative viability ([2]; first compound 0.01 µM)	relative viability ([2]; first compound 0.03162 µM)	relative viability ([2]; first compound 0.1 µM)	relative viability ([2]; first compound 0.3162 µM)	relative viability ([2]; first compound 1 µM)	relative viability ([3]; first compound 0.01 µM)	relative viability ([3]; first compound 0.03162 µM)	relative viability ([3]; first compound 0.1 µM)	relative viability ([3]; first compound 0.3162 µM)	relative viability ([3]; first compound 1 µM)	relative viability ([4]; first compound 0.01 µM)	relative viability ([4]; first compound 0.03162 µM)	relative viability ([4]; first compound 0.1 µM)	relative viability ([4]; first compound 0.3162 µM)	relative viability ([4]; first compound 1 µM)
NCI-H661	0.281	0.3	0.278	0.285	0.284	0.493	0.486	0.563	0.591	0.564	0.439	0.356	0.511	0.371	0.346	0.785	0.801	0.774	0.805	0.821
NCI-H727		0.376	0.586	0.477	0.4	0.333	0.375	0.417	0.366	0.334	0.506	0.416	0.443	0.317	0.317	1.13	1.36	1.38	0.988	1.09
NCI-H838	0.466	0.521	0.537	0.508	0.51	0.375	0.425	0.458	0.451	0.488	0.477	0.387	0.512	0.396	0.432	0.7	0.664	0.773	0.639	0.703
NCI-H1355	0.343	0.376	0.391	0.429	0.362	0.439	0.35	0.497	0.329	0.468	0.454	0.264	0.418	0.331	0.441	0.631	0.518	0.633	0.464	0.577
NCI-H1395	0.402	0.422	0.46	0.367	0.407	1.01	1.03	1.04	1.11	0.973	0.695	0.577	0.645	0.565	0.58	0.765	0.613	0.787	0.774	0.637
NCI-H1437	0.253	0.25	0.309	0.253	0.246	0.511	0.507	0.52	0.494	0.449	0.432	0.421	0.403	0.421	0.382	0.798	0.799	0.932	0.789	0.75
NCI-H1650	0.419	0.328	0.527	0.344	0.245	0.48	0.54	0.479	0.493	0.527	0.53	0.501	0.583	0.548	0.535	0.492	0.402	0.549	0.437	0.512
NCI-H1651	0.346	0.318	0.34	0.33	0.316	0.776	0.792	0.836	0.901	0.856	0.529	0.585	0.543	0.622	0.505	0.577	0.543	0.56	0.529	0.55
